Structures can show the parent of a compound that is named as a salt. Where two headings read alike, the source gives them in different places.
Experiments:
Type in all cases: cell-based
5-HT1A = molecular target: T1, 5-HT1A (Homo sapiens, UniProt P08908); assay: Calcium mobilization assay (Gq signaling), 5-HT1A
T1 sequence (P08908 1-422): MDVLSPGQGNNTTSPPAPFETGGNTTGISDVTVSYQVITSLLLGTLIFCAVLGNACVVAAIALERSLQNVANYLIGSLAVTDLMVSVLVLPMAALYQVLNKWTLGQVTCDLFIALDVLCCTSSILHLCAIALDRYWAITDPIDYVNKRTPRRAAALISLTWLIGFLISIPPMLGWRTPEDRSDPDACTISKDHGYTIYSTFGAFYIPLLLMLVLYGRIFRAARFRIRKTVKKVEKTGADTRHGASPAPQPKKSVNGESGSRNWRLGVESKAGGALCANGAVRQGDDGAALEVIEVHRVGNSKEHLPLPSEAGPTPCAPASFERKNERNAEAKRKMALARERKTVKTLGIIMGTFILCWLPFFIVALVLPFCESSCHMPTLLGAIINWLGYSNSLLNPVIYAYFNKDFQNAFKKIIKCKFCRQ
Experimental: (§1) The Calcium No-Wash^PLUS assay monitors the activation of a GPCR via Gq secondary messenger signaling in a live cell, non-imaging assay format. Calcium mobilization in PathHunter® cell lineSOR other cell lines stably expressing Gq-Coupled GPCR5 is monitored using a calcium-sensitive dye that is loaded into cells. GPCR activation by a compound results in the release of calcium from intracellular stores and an increase in dye fluorescence that is measured in real-time.
(§2) Cell lines expressing the GPCR of interest were expanded from freezer stocks according to standard procedures. […] Compound agonist activity was measured on a FLIPR Tetra (MDS). Calcium mobilization was monitored for 2 minutes and 10 μL 4× sample in HB SS/20 mM Hepes was added to the cells 5 seconds into the assay. Compound activity data was analyzed using CBIS data analysis suite (ChemInnovation, California). For agonist mode assays, percentage activity is calculated using the following formula: % Activity=100%×(mean RFU of test sample−mean RFU of vehicle control)/(mean MAX RFU control ligand−mean RFU of vehicle control). […]
(§3) Compounds 1-1·HCl, 1-2 and 2-1 were assessed for biological activity across a panel of 5-HT receptors including 5-HT2A, 5-HT2B, 5-HT2C and 5-HT1A. Biased signaling was assessed by monitoring both intracellular Gq-mediated calcium release, as well as beta-arrestin activation and recruitment to the GPCR.

5HT2A [1] = molecular target: T2, 5HT2A (Homo sapiens, UniProt P28223); assay: Calcium mobilization assay (Gq signaling), 5-HT2A; conditions: for type of agonism of 5-HT2A mediated signaling: EC50 profiles, FIG. 1; for Emax: read-out: maximum effect level, Gq signaling
T2 sequence (P28223 whole entry): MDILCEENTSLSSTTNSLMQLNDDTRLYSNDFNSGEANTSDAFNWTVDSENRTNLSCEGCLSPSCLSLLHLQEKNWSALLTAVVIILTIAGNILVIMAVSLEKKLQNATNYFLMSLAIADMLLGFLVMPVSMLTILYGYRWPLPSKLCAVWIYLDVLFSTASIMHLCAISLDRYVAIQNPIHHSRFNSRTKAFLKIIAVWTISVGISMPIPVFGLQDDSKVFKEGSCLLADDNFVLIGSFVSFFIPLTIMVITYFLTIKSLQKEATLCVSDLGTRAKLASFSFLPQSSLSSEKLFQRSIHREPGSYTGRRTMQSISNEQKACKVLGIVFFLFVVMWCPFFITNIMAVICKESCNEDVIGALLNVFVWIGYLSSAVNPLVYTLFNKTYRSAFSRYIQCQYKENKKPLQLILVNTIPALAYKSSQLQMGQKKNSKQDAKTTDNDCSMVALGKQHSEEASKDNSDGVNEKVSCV
Experimental: as §1
(§4) Cell lines expressing the GPCR of interest were expanded from freezer stocks according to standard procedures. Cells were seeded in a total volume of 20 μL into black-walled, clear-bottom, Poly-D-lysine coated 384-well microplates and incubated at 37° C. for the appropriate time prior to testing. Assays were performed in 1× Dye Loading Buffer consisting of 1× Dye, 1× Additive A and 2.5 mM Probenecid in HB SS/20 mM Hepes. Probenicid was prepared fresh. Cells were loaded with dye prior to testing. Media was aspirated from cells and replaced with 20 μL Dye Loading Buffer. Cells were incubated for 30-60 minutes at 37° C. For agonist determination, cells were incubated with sample to induce response. After dye loading, cells were removed from the incubator and 10 μL HBSS/20 mM Hepes was added. 3× vehicle was included in the buffer when performing agonist dose curves to define the EC80 for subsequent antagonist assays. Cells were incubated for 30 minutes at room temperature in the dark to equilibrate plate temperature. Intermediate dilution of sample stocks was performed to generate 4× sample in assay buffer. Compound agonist activity was measured on a FLIPR Tetra (MDS). Calcium mobilization was monitored for 2 minutes and 10 μL 4× sample in HB SS/20 mM Hepes was added to the cells 5 seconds into the assay. Compound activity data was analyzed using CBIS data analysis suite (ChemInnovation, California). For agonist mode assays, percentage activity is calculated using the following formula: % Activity=100%×(mean RFU of test sample−mean RFU of vehicle control)/(mean MAX RFU control ligand−mean RFU of vehicle control). In these studies, the MAX RFU was generated by using 0.1 μM serotonin for the calcium mobilization assay.
as §3

5-HT2B = 5-HT2B (Homo sapiens, UniProt P41595); assay: Calcium mobilization assay (Gq signaling), 5-HT2B
Sequence of 5-HT2B (P41595 whole entry): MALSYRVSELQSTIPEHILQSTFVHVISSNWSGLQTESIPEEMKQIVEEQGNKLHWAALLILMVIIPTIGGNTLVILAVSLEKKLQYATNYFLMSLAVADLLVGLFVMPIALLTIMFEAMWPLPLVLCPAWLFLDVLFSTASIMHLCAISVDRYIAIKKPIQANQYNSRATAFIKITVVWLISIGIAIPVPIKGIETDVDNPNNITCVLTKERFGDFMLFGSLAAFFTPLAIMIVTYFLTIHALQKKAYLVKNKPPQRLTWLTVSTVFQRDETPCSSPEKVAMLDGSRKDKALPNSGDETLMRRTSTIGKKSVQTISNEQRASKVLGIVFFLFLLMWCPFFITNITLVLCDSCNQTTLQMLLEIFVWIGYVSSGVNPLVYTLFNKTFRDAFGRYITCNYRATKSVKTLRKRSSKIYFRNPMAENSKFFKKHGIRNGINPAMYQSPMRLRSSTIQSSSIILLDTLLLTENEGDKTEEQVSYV
Experimental: as §1
as §4, with “3× vehicle was included in the buffer when performing agonist dose curves to define the EC80 for subsequent antagonist assays. Cells were incubated for 30 minutes at room temperature in the dark to equilibrate plate temperature. Intermediate dilution of sample stocks was performed to generate 4× sample in assay buffer.” left out, “In these studies, the MAX RFU was generated by using 0.1 μM serotonin for the calcium mobilization assay.” left out
as §3

5-HT2C = molecular target: T3, 5-HT2C (Homo sapiens, UniProt P28335); assay: Calcium mobilization assay (Gq signaling), 5-HT2C
T3 sequence (P28335 33-458): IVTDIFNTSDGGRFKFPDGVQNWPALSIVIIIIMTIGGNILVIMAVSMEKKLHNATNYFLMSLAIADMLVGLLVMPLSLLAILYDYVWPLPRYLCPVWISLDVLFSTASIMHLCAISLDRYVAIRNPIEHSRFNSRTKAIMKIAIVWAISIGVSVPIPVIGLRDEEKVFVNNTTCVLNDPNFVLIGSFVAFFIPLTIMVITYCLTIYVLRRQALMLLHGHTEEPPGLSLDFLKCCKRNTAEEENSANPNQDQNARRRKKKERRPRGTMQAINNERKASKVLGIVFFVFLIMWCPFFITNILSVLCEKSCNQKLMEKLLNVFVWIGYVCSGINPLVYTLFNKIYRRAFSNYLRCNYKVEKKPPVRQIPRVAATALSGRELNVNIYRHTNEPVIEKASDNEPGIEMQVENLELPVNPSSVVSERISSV
Experimental: as §1, §2, §3

5HT2A [2] = molecular target: T2, 5HT2A; assay: PathHunter β-Arrestin assay, 5-HT2A
Experimental: PathHunter cell lines (DiscoveRx Eurofins) were expanded from freezer stocks according to standard procedures. Cells were seeded in a total volume of 20 μL into white walled, 384-well microplates and incubated at 37° C. for the appropriate time prior to testing. For agonist determination, cells were incubated with sample to induce response. Intermediate dilution of sample stocks was performed to generate 5× sample in assay buffer. 5 μL of 5× sample was added to cells and incubated at 37° C. or room temperature for 90 to 180 minutes. […] Microplates were read following signal generation with a PerkinElmer Envision™ instrument for chemiluminescent signal detection. Compound activity was analyzed using CBIS data analysis suite (ChemInnovation, California). For agonist mode assays, percentage activity was calculated using the following formula: % Activity=100%×(mean RLU of test sample−mean RLU of vehicle control)/(mean MAX control ligand−mean RLU of vehicle control). […]
as §3

5HT2A [3] = molecular target: T2, 5HT2A; assay: 5HT2A Activity (% Max Activation @ 0.3 uM)

Row | SMILES | EC50 (5-HT1A; Gq signaling, read-out: EC50, 5-HT1A (Gq signaling)) | EC50 (5HT2A [1]) | type of agonism of 5-HT2A mediated signaling (5HT2A [1]) | Emax (5HT2A [1]) | EC50 (5-HT2B; Gq signaling, read-out: EC50, 5-HT2B (Gq signaling)) | EC50 (5-HT2C; Gq signaling, read-out: EC50, 5-HT2C (Gq signaling)) | EC50 (5HT2A [2]) | EC50 (5-HT1A) | selectivity for 5-HT2A over 5-HT2B (5HT2A [1]; 5-HT2A compared to 5-HT2B) | EC50 (5-HT2B) | activity at 5-HT2B (5-HT2B; concentrations less than 10 uM) | EC50 (5-HT2C) | Emax at 0.3 µM (5HT2A [3])
1 | COc1ccc(OC)c2c1CCC(NCc1cc(C)cc(Cl)c1)C2 (centres unmarked) [1-1·HCl, N-(3-chloro-5-methylbenzyl)-5,8-dimethoxy-1,2,3,4-tetrahydronaphthalen-2-amine hydrochloride] | 17.2 µM | 0.134 µM | full-agonism | ~100% | 23.2 µM | 10 µM | 0.172 µM |  |  |  |  |  | 
2 | COc1ccc(OC)c(CCNCc2cc(C)cc(Cl)c2)c1 [Compound 2-1, N-(3-chloro-5-methylbenzyl)-2-(2,5-dimethoxyphenyl)ethan-1-amine] |  | 0.01 µM | partial-agonist | ~86% |  |  | 0.023 µM | 24.7 µM | ~4400 fold | 44.1 µM | no appreciable activity | 0.091 µM | 98%

— US11926574B2, “Dimethoxyphenylalkylamine activators of serotonin receptors” (Entheogenix Biosciences, Inc., priority 2021, dated 2024)
